{"source": "paper PMC4890785", "about": "“Recombinant L-Asparaginase from Zymomonas mobilis: A Potential New Antileukemic Agent Produced in Escherichia coli” (PLoS ONE, 2016)", "biological_target": "T1, L-asparaginase from Z. mobilis (L-AspZ) (Zymomonas mobilis, UniProt Q5NLV3)", "T1 construct": "gene ZMO1683; first 29 residues (signal peptide) removed; codon-optimised gene in E. coli BL21(DE3): pET26b (pelB, extracellular) or pET28a (cytoplasmic); not purified", "T1 sequence (Q5NLV3 entry or part of it)": "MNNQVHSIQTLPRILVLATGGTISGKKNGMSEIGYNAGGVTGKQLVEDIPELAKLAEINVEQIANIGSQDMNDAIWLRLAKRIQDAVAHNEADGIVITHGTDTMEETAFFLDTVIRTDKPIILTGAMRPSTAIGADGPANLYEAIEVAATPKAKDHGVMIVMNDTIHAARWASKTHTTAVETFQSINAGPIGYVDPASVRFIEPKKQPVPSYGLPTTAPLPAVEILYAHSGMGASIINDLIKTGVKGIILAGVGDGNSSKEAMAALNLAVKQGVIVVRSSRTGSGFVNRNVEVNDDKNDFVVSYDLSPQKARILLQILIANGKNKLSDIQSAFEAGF", "assay": "ammonia release, salicylate-hypochlorite (indophenol) colorimetry", "type": "biochemical", "conditions": "sonicated E. coli lysate or concentrated culture medium; 37 °C, pH 7.3, 20 mM sodium phosphate; asparagine stock 5 g/L mixed 1:1; uninduced control tested"}
{"compound": "NC(=O)C[C@H](N)C(=O)O", "note": "[asparagine]", "values": [{"measurement": "ammonia release, salicylate-hypochlorite (indophenol) colorimetry", "result": "Enzyme activity was measured by hydrolyzing asparagine to aspartate and ammonia"}]}
